These compounds were tested against T1, Human steroid 5α-reductase (Homo sapiens, UniProt P31213) (assay: Human steroid 5α-reductase inhibiting effect using human prostatic tissue). Settings: human prostate homogenate, pH 5.5, 50 nM [3H]testosterone, NADPH, 37° C., 10 min; Table 5.
T1 construct: The suspension was used as the source of 5α-reductase; from tissue; host or cells: frozen human prostate, whole homogenate in 0.1 M phosphate buffer pH 5.5
T1 sequence (P31213 1-254): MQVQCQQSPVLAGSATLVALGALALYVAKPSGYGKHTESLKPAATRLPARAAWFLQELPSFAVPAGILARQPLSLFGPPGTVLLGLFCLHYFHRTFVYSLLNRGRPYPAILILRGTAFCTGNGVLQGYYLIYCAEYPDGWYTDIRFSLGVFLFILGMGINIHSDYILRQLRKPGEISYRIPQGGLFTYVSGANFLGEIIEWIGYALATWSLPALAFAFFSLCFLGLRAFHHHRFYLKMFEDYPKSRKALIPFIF
Type: biochemical
Source text: Human steroid 5α-reductase inhibiting effect was examined on the compounds of the present invention using human prostatic tissue.
Frozen human prostate was thawed on ice and minced into small pieces (~5mm^3). The minced tissue was homogenized with a Polytron homogenizer (Kinematica, Switzerland) in 40 vol. of 0.1M phosphate buffer at pH 5.5. The suspension was used as the source of 5α-reductase.
For this test, DMSO solutions containing various amount of the inhibitor were employed.
Each reaction solution was incubated at 37° C. for 10 minutes and ethyl acetate (2 ml) chilled with ice was added for stopping the reaction. The organic layer was transferred to another test tube and evaporated to dryness under nitrogen. Each 50 μg of non radioactive testosterone, DHT, estradiol, androstenedione and androstandiol was added to the residue, and the wall of each test tube was washed with ethyl acetate (0.1 ml). The content of the tube was evaporated again and the residue was dissolved in chloroform (50 μl) and then applied to Whatman LK60DF silica plates (Whatman, N.J.), developing in chloroform:methanol (50:1). The bands of the substrates and products were identified by fluorescence (254 nm) and iodine, and the relevant silica gel was collected by scraping, mixed with toluene based liquid sincilator, and the radioactivity was counted. The radioactivities of DHT and androstandiol were combined for the calculation of 5α-reductase activity. […] The radioactivity for the control group was postulated as 100%.
IC50 were calculated from the data obtained from the above experiments.

In order of falling IC50:
1. CC12CCC(C(=O)O)=CC1=CCCC2NC(=O)c1cccc(OCc2ccccc2)c1 (centres unmarked) [Example 15, 5-(3'-benzyloxy-benzoylamino)-10-methyl-Δ^1(2),8(9) -octalin-2-carboxylic acid]  4210 nM
2. CC12CCC(C(=O)O)=CC1=CCCC2NC(=O)c1ccc(Oc2ccccc2)cc1 (centres unmarked) [Example 1]  3300 nM
3. Cc1c(OC2CCCCCC2)cccc1C(=O)NC1CCC=C2C=C(C(=O)O)CCC21C (centres unmarked) [Example 51, 5-(3'-cycloheptyloxy-2-methylbenzoylamino)-10-methyl -Δ^1(2),8(9) -octalin-2-carboxylic acid]  910 nM
4. CC12CCC(C(=O)O)=CC1=CCCC2NC(=O)c1cccc(Oc2ccccc2)c1 (centres unmarked) [Example 2, 5-(3'-phenoxybenzoylamino)-10-methyl-Δ^1(2),8(9) -octalin-2-carboxylic acid]  830 nM
5. CC(C)c1ccc(Oc2cccc(C(=O)NC3CCC=C4C=C(C(=O)O)CCC43C)c2)cc1 (centres unmarked) [Example 4, 5-[3'-(p-isopropylphenoxy)benzoylamino]-10-methyl-Δ^1(2),8(9) -octalin-2-carboxylic acid]  810 nM
6. CC12CCC(C(=O)O)=CC1=CCCC2NC(=O)c1ccc2c(c1)OC1(CCCCC1)O2 (centres unmarked) [Example 42, 5-(3',4'-cyclohexylidenedioxybenzoylamino)-10-methyl-Δ^1(2),8(9)-octalin-2-carboxylic acid]  770 nM
7. Cc1cc(C)cc(Oc2cccc(C(=O)NC3CCC=C4C=C(C(=O)O)CCC43C)c2)c1 (centres unmarked) [Example 13, 5-[3'-(3,5-dimethylphenoxy)benzoylamino]-10-methyl-Δ^1(2),8(9) -octalin-2-carboxylic acid]  660 nM
8. C[C@@]12CCC(C(=O)O)=CC1=CCC[C@H]2NC(=O)c1cccc(OC2CCCCCC2)c1 [Example 45, (5R,10R)-5-(3'-cycloheptyloxybenzoylamino)-10-methyl-Δ^1(2),8(9)-octalin-2-carboxylic acid]  610 nM
9. CC(C)Cc1ccc(Oc2cccc(C(=O)NC3CCC=C4C=C(C(=O)O)CCC43C)c2)cc1 (centres unmarked) [Example 9, 5-{3"-[p-(2'-methylpropyl]phenoxy)benzoylamino}-10-methyl-Δ^1(2),8(9) -octalin-2-carboxylic acid]  520 nM
10. CC(C)C1CCC(Oc2cccc(C(=O)NC3CCC=C4C=C(C(=O)O)CCC43C)c2)CC1 (centres unmarked) [Example 22, 5-[3-(4-isopropylcyclohexyloxy)benzoylamino]-10-methyl-Δ^1(2),8(9) -octalin-2-carboxylic acid]  520 nM
11. CC(C)c1cccc(Oc2cccc(C(=O)NC3CCC=C4C=C(C(=O)O)CCC43C)c2)c1 (centres unmarked) [Example 5, 5-[3'-(m-isopropylphenoxy)benzoylamino]-10-methyl-Δ^1(2),8(9) -octalin-2-carboxylic acid]  460 nM
12. CC12CCC(C(=O)O)=CC1=CCCC2NC(=O)c1cccc(Oc2ccc3c(c2)CCCC3)c1 (centres unmarked) [Example 14, 5-[3'-(5",6",7",8"-tetrahydro-2"-naphtoxy)benzoylamino]-10-methyl-Δ^1(2),8(9) -octalin-2-carboxylic acid]  440 nM
13. CC12CCC(C(=O)O)=CC1=CCCC2NC(=O)c1cccc(OCC2CCCCC2)c1 (centres unmarked) [Example 31, 5-(3'-cyclohexylmethoxybenzoylamino)-10-methyl-Δ^1(2),8(9) -octalin-2-carboxylic acid]  410 nM
14. COc1ccc(C(=O)NC2CCC=C3C=C(C(=O)O)CCC32C)cc1OC1CCCCCC1 (centres unmarked) [Example 39, 5-(3'-cycloheptyloxy-4'-methoxybenzoylamino)-10-methyl-Δ^1(2),8(9) -octalin-2-carboxylic acid]  390 nM
15. CC12CCC(C(=O)O)=CC1=CCCC2NC(=O)c1cccc(O[C@H]2CC[C@H](C(C)(C)C)CC2)c1 (stereo partly drawn) [Example 23, 5-[3-(4-trans-t-butylcyclohexyloxy)benzoylamino]-10-methyl-Δ^1(2),8(9) -octalin-2-carboxylic acid]  300 nM
16. CC(C)c1ccc(Oc2cc(Br)cc(C(=O)NC3CCC=C4C=C(C(=O)O)CCC43C)c2)cc1 (centres unmarked) [Example 37, 5-[3-bromo-5-(p-isopropylphenoxy)benzoylamino]-10-methyl-Δ^1(2),8(9) -octalin-2-carboxylic acid]  300 nM
17. C[C@]12CCC(C(=O)O)=CC1=CCC[C@@H]2NC(=O)c1cccc(OC2CCCCCC2)c1 [Example 46, (5S,10S)-5-(3'-cycloheptyloxybenzoylamino)-10-methyl-Δ^1(2),8(9)-octalin-2-carboxylic acid]  300 nM
18. CC12CCC(C(=O)O)=CC1=CCCC2NC(=O)c1cccc(OC2CCCCCCC2)c1 (centres unmarked) [Example 20, 5-(3'-cyclooctyloxybenzoylamino)-10-methyl-Δ^1(2),8(9) -octalin-2-carboxylic acid]  270 nM
19. CC12CCC(C(=O)O)=CC1=CCCC2NC(=O)c1cccc(Oc2ccc(C3CCCCC3)cc2)c1 (centres unmarked) [Example 11, 5-[3'-(p-cyclohexylphenoxy)benzoylamino]-10-methyl-Δ^1(2),8(9) -octalin-2-carboxylic acid]  250 nM
20. CC(C)(C)c1cc(C(=O)NC2CCC=C3C=C(C(=O)O)CCC32C)cc(C(C)(C)C)c1 (centres unmarked) [Example 43, 5-(3',5'-di-t-butylbenzoylamino)-10-methyl-Δ^1(2),8(9) -octalin-2-carboxylic acid]  230 nM
21. Cc1ccc(Oc2cccc(C(=O)NC3CCC=C4C=C(C(=O)O)CCC43C)c2)cc1 (centres unmarked) [Example 7, 5-[3'-(p-tolyloxy)benzoylamino]-10-methyl-Δ^1(2),8(9) -octalin-2-carboxylic acid]  210 nM
22. CC12CCC(C(=O)O)=CC1=CCCC2NC(=O)c1cccc(OC2CCCC2)c1 (centres unmarked) [Example 17, 5-(3'-cyclopentyloxybenzoylamino)-10-methyl-Δ^1(2),8(9) -octalin-2-carboxylic acid]  180 nM
23. CC12CCC(C(=O)O)=CC1=CCCC2NC(=O)c1cccc(CC2CCCCC2)c1 (centres unmarked) [Example 35, 5-(3'-cyclohexylmethylbenzoylamino)-10-methyl-Δ^1(2),8(9) -octalin-2-carboxylic acid]  160 nM
24. C[C@]12CCC(C(=O)O)=CC1=CCC[C@@H]2NC(=O)c1cccc(OC(C2CC2)C2CC2)c1 [Example 47, (5S,10S)-5-(3'-dicyclopropylmethoxybenzoylamino)-10-methyl-Δ^1(2),8(9) -octalin-2-carboxylic acid]  160 nM
25. C[C@]12CCC(C(=O)O)=CC1=CC[C@@H]2NC(=O)c1cccc(OC(C2CC2)C2CC2)c1 [Example 54, (1S,8S)-1-[3'-(dicyclopropylmethyloxy)benzoylamino]-8a-methyl-1,2,6,7-tetrahydroindene-5-carboxylic acid]  160 nM
26. CC(C)C(Oc1cccc(C(=O)N[C@H]2CCC=C3C=C(C(=O)O)CC[C@@]32C)c1)C(C)C [Example 48, (5S,10S)-5-[3'-(2",4"-dimethyl-3"-pentyloxy)benzoylamino]-10-methyl-Δ^1(2),8(9) -octalin-2-carboxylic acid]  65 nM

From patent US5385917A, “Carboxylic acid derivatives” (Mitsubishi Kasei Corporation, priority 1992, dated 1995)
